# Test results: patent publication US6121277A, “Camptothecin-skeleton compounds isolated from Mappia foetida and the use thereof as syntones for novel medicaments as well as therapeutical agents” (Indena S.p.A., priority 1996, dated 2000)
# Like-named read-outs stand apart in the source and are kept apart here.
# Assays:
# HCT116 = assay: Cytotoxic activity against colon carcinoma line HCT116; format: cell-based; details: Homo sapiens
# Description: (§1) Compounds 1 have cytotoxic activity against tumor cell lines. For example, Table 1 reports the cytotoxic activity against a colon carcinoma line (HCT116) and against the same line resistant to the most common chemotherapeutics (HCT116/VM46).
# HCT116/VM46 = assay: Cytotoxic activity against the same line resistant to the most common chemotherapeutics (HCT116/VM46); format: cell-based; details: Homo sapiens
# Description: as §1
smiles,measurement,setting,value
"CCC(O)(C(=O)O)c1cc2n(c(=O)c1COC(C)=O)Cc1cc3ccccc3nc1-2 (stereo not shown) [17-Acetyl-camptothecinic acid, 17-acetyl-camptothecinic acid]",IC50,"HCT116; HCT-116, colon carcinoma line HCT116, read-out: IC50 Line HCT116",8.2 nM
same,IC50,"HCT116/VM46; HCT-116/VM46, HCT116/VM46, resistant to the most common chemotherapeutics, read-out: IC50 Line HCT116/VM46",25.3 nM
"CC[C@@]1(O)C(=O)OCc2c1cc1n(c2=O)Cc2cc3ccccc3nc2-1 [Camptothecin, camptothecin]",IC50,"HCT116; HCT-116, read-out: IC50 Line HCT116",10.5 nM
same,IC50,"HCT116/VM46; HCT-116/VM46, read-out: IC50 Line HCT116/VM46",96.7 nM
